Consider four compounds from patent US20050009886A1, “1,4-Dihydropyridine derivative with a guaiacoxypropanolamine and/or phenoxypropanolamine moiety” (priority 1998, published 2005).

Assay [1] is described as follows: Heart rate and blood pressure in living rat. It is filed as in vivo, Wistar rats. The conditions noted are these: 1 mg/kg via femoral vein, anaesthetized rat. The source says:
Male Wistar rats, weighing 200˜300 g were abdominal anaesthetized with pentobarbital sodium. Tracheal was cannulated to maintain normal respiration. Polyethylene tube was inserted into the left femoral vein to facilitate drug administration. A 3-way stopcock was used, with one end connected to a syringe for drug injection, while the other end was connected to the syringe filled with physiological saline. The latter was used to prevent residual drugs in the polyethylene tube after injection, which would affect experimental accuracy.
The right femoral artery was also inserted with polyethylene, and a 3-way stopcock was used too, where one end was connected to heparin solution to prevent embolism. The other end was connected to a Disposable Diaphragm Dome, TA1019, and linked to a transducer. Through an amplifier, a recorder recorded the overall and average arterial pressure; heart rate to evaluate the effect of drug on blood pressure and heart rate.

Assay [2] deals with T1, β-adrenoreceptor (β1) (Rattus norvegicus, UniProt P18090).
T1 construct: The right and left atria were then separated; from tissue; host or cells: isolated rat right atrium (spontaneously beating) and left atrium (electrically paced)
Briefly: Isolated right atrium, L-isoproterenol-induced heart rate increase (pA2). Details: species or system Wistar rat. Conditions: for β1/β2: from pA2 difference right atrium vs tracheal; for β1 Right Atrium (Slope): slope of Schild regression; for β1 Value of pA2 Right Atrium: vs L-isoproterenol, Schild plot. As to the method: The right and left atria were then separated. The spontaneously-beating right atria was clipped on both end by heart shaped clips, where one end was fixed at the bottom of 10 ml of tissue bath made of physiological saline solution, and temperature maintained at 37° C. The other end of the atria was connected to a force transducer, and isometric contractions and beating rate of the right atria were recorded by COULBOURN AT-High-Speed VideoFigure. After the samples were given 250 mg of contractions and reach equilibrium the following experiments were carried out: • (a) β-adrenoceptor blocking action
Cumulative administration interval was when the previous concentration reached its greatest effect, the next concentration would be immediately given.
The equation is as follows: pA2=−Log KB Log(DRADJ−1)=nlog[B]−LogKB [formula]
[B] Test compound concentration in moles • KB: equilibrium dissociation constant • n: value of slope DR: test EC50 divided by control EC50 • CF: EC50 of second or third control groups divided by EC50 of first control group (c) Effect of Compound on the Increase of Spontaneous Beating in Right Atrium Caused by CaCl2

Assay [3] addresses T1, β-adrenoreceptor (β1). Briefly: Isolated left atrium, L-isoproterenol-induced contractility increase (pA2). The conditions noted are these: for β1 Left Atrium (Slope): slope of Schild regression; for β1 Value of pA2 Left Atrium: vs L-isoproterenol, electrically stimulated. Details: species or system Wistar rat. As to the method: The inspontaneously-beating left atrial tissue was obtained from rat's isolated right atrial tissue experiments. […] The contraction rate was 1 Hz and the resting tension 0.5 gm. After 60 minutes of equilibration, the following experiments were performed:
(a) Completion of cumulative concentration-response curve: similar to experimental method on isolated right atrium;
(b) Calculation of pA2 value: similar to calculation method on isolated right atrium.

For a further assay, the target named is T2, β2 (Cavia porcellus, UniProt Q8K4Z4).
T2 construct: a portion of tracheal approximately 4 cm long was removed; from tissue; host or cells: isolated trachea of reserpine-pretreated guinea pigs
The assay can be described thus: Guinea pig's isolated tracheal, L-isoproterenol relaxation of carbachol contraction (pA2). Conditions: for β2 Tracheal (slope): slope of Schild regression; for β2 Value of pA2 Tracheal: vs L-isoproterenol, carbachol 10^−6 M contraction. As to the method:
Guinea pigs of weight between 300˜500 gm were used. […] After the guinea pigs were sacrificed, a slit was made along the neck, and a portion of tracheal approximately 4 cm long was removed. […] The two ends of the tracheal were clamped with frog-heart shaped clamps, one end was fixed at the bottom of tissue bath filled with 20 ml of Kreb's solution, maintained at 37° C., while the other end was connected to a force transducer. Through a COULBOURN AT-High-Speed Videograph, long isometric contractions were recorded. After the sample was given 1.5 gm of tension and equilibrated, the following experiments were performed:
Then the tracheal was repeatedly washed with Kreb's solution for 20 minutes and 10−6 M of carbochol was added to cause contraction in the guinea pig's tracheal. […] This is the test group.
(b) Calculation of pA2: similar to the calculation method for isolated right atrium experiment.

Another assay deals with thoracic aorta. The assay can be described thus: Isolated thoracic aorta contraction caused by 75 mM KCl. Details: species or system Wistar rat. Conditions: 10^−8M; 75 mM KCl contraction. As to the method:
After sacrificing Wistar rat of weight between 300-500 gm, the thoracic aorta was immediately removed and placed in cold Kreb's solution. The fatty connecting tissue surrounding the vessel wall was removed and the thoracic aorta was cut into rings of length 5 mm. The two ends of each ring was pieced and fixed with “Z” shaped platinum wires. […] The sample was given 1 gm of tension and equilibrated for 60 minutes before the following experiments were carried out:
After thoracic aorta had reached equilibrium in the tissue trough, the normal Kreb's solution in the trough was replaced with 75 mM KCl solution to induce vasoconstriction. When the results had been recorded for at least 35 minutes, the aorta was repeatedly rinsed with normal Kreb's solution. After the aorta had re-equilibrated and at least rested for 60 minutes, different concentrations (10^−8, 10^−7, 10^−6, and 10^−5M) of compound 1 were separately added. 30 minutes later, 75 mM KCl was added again to induce vasoconstriction. This method was used to compare the differences in contraction induced by 75 mM KCl on thoracic aorta pre-treated and non-treated with compound 1.
0.1 μM of BayK8644 was first added into the tissue trough. 10 minutes later, 75 mM of concentrated Potassium solution was added to induce thoracic aorta contraction. When vasoconstriction had reached stability, different concentrations of (10^−8, 10^−7, 10^−6, and 10^−5M) compound 1 were separately added. The effects of aorta contraction induced by concentrated Potassium solution were observed.

The subject of another assay is Calcium. The assay can be described thus: Calcium antagonism (pKCa^−1, Table 2).

T2 sequence (Q8K4Z4 whole entry): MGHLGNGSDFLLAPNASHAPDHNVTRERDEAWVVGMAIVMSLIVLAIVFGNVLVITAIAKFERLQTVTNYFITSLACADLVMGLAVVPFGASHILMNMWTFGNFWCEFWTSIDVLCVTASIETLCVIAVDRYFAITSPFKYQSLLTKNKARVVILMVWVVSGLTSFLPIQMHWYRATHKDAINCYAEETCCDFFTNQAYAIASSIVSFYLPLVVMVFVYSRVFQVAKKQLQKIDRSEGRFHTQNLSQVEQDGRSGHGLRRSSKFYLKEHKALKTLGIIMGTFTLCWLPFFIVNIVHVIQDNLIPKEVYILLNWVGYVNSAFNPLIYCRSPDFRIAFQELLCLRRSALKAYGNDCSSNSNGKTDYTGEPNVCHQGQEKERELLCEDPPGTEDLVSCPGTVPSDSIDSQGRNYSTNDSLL
T1 sequence (P18090 whole entry): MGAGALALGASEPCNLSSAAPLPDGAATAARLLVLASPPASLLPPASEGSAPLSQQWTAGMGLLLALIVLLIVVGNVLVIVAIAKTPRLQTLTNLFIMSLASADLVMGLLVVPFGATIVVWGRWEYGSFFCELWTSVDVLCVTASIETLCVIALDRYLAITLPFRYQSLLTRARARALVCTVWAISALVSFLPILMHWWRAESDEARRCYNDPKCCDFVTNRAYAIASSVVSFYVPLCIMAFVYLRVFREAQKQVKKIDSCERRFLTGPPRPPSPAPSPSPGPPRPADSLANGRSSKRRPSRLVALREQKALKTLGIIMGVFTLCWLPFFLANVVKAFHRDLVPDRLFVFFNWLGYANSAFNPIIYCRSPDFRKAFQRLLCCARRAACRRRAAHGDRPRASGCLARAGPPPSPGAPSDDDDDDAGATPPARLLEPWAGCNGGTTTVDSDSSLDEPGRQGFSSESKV

Turning to `CCCCNCC(O)COc1ccc(Cl)cc1C1C(C(=O)OCC)=C(C)NC(C)=C1C(=O)OCC` (stereo not drawn) [Compound 5], in assay [1], the “Lowering of Blood Pressure” value was 74 ± 4 mmHg and the “Reduction of Heart Rate” value came out at 32 ± 4 beats/min. Also, at β-adrenoreceptor (β1) [2], the “Ratio of β1 and Calcium Antagonism” value came to 0.10; the β1/β2 is on record as 1.33; the “β1 Right Atrium (Slope)” value is on record as “(0.91 ± 0.23)”; the “β1 Value of pA2 Right Atrium” value was 7.37 ± 0.27. Further, on β-adrenoreceptor (β1) [3], the “β1 Left Atrium (Slope)” value is given as “(0.93 ± 0.19)” and the “β1 Value of pA2 Left Atrium” value is on record as 6.91 ± 0.09. For the same compound, at β2, the “β2 Tracheal (slope)” value was “(0.91 ± 0.21)” and the “β2 Value of pA2 Tracheal” value was found to be 7.24 ± 0.12. The “Aorta Relaxation” value with thoracic aorta turned out to be 33 ± 2%. Moreover, in the assay on Calcium, the “Calcium Antagonism PKCa^−1” value stood at 7.89 ± 0.34.
Turning to `CCOC(=O)C1=C(C)NC(C)=C(C(=O)OCC)C1c1cc([N+](=O)[O-])ccc1OCC(O)CNC(C)(C)C` (stereo not drawn) [Compound 8], in assay [1], the “Lowering of Blood Pressure” value is on record as 80 ± 3 mmHg and the “Reduction of Heart Rate” value is on record as 40 ± 4 beats/min. Also, on β-adrenoreceptor (β1) [2], the “Ratio of β1 and Calcium Antagonism” value was determined as 0.08; the β1/β2 is 1.29; the “β1 Right Atrium (Slope)” value was “(0.83 ± 0.21)”; the “β1 Value of pA2 Right Atrium” value turned out to be 7.89 ± 0.23. Moreover, on β-adrenoreceptor (β1) [3], the “β1 Left Atrium (Slope)” value was “(0.89 ± 0.12)” and the “β1 Value of pA2 Left Atrium” value is recorded as 7.03 ± 0.18. Besides, at β2, the “β2 Tracheal (slope)” value is reported as “(0.92 ± 0.17)” and the “β2 Value of pA2 Tracheal” value is 7.27 ± 0.19. The “Aorta Relaxation” value with thoracic aorta is 43 ± 3%. The “Calcium Antagonism PKCa^−1” value in the assay with Calcium stood at 8.09 ± 0.13.
Consider `COC(=O)C1=C(C)NC(C)=C(C(=O)OC)C1c1ccc(OCC(O)CNCCOc2ccccc2OC)c(OC)c1` (stereo not drawn) [Compound 2, 4-{{N-{4-[2-hydroxy-3-(2-methoxy-1-oxyethyl-aminobenzene)propoxy]-3-methoxy}phenyl}}-2,6-dimethyl-3,5-dicarbo-methoxy-1,4-dihydropyridine], for which, in assay [1], the “Lowering of Blood Pressure” value came to 75 ± 2 mmHg and the “Reduction of Heart Rate” value turned out to be 35 ± 4 beats/min. Moreover, on β-adrenoreceptor (β1) [2], the “Ratio of β1 and Calcium Antagonism” value is reported as 0.09; the β1/β2 was 1.28; the “β1 Right Atrium (Slope)” value is given as “(0.88 ± 0.09)”; the “β1 Value of pA2 Right Atrium” value is recorded as 7.36 ± 0.65. In addition, on β-adrenoreceptor (β1) [3], the “β1 Left Atrium (Slope)” value is “(0.91 ± 0.21)” and the “β1 Value of pA2 Left Atrium” value is 6.93 ± 0.34. Also, on β2, the “β2 Tracheal (slope)” value was “(0.88 ± 0.12)” and the “β2 Value of pA2 Tracheal” value worked out at 7.20 ± 0.45. The “Aorta Relaxation” value in the assay with thoracic aorta was 40 ± 4%. Further, the “Calcium Antagonism PKCa^−1” value in the assay with Calcium is 7.91 ± 0.35.
For `CCOC(=O)C1=C(C)NC(C)=C(C(=O)OCC)C1c1ccc(OCC(O)CNCCOc2ccccc2OC)c(OC)c1` (stereo not drawn) [Compound 3, 4-{{N-{4-[2-hydroxy-3-(2-methoxy-1-oxyethyl-aminobenzene)propoxy]-3-methoxy)phenyl}}-2,6-dimethyl-3,5-dicarboethoxy-1,4-dihydropyridine], in assay [1], the “Lowering of Blood Pressure” value is reported as 78 ± 5 mmHg and the “Reduction of Heart Rate” value is listed as 37 ± 5 beats/min. On β-adrenoreceptor (β1) [2], the “Ratio of β1 and Calcium Antagonism” value is 0.08; the β1/β2 is 1.26; the “β1 Right Atrium (Slope)” value was “(0.92 ± 0.27)”; the “β1 Value of pA2 Right Atrium” value was 7.47 ± 0.38. Moreover, at β-adrenoreceptor (β1) [3], the “β1 Left Atrium (Slope)” value is reported as “(0.89 ± 0.03)” and the “β1 Value of pA2 Left Atrium” value turned out to be 6.97 ± 0.12. At β2, the “β2 Tracheal (slope)” value is “(0.92 ± 0.23)” and the “β2 Value of pA2 Tracheal” value was found to be 7.31 ± 0.23. For the same compound, the “Aorta Relaxation” value with thoracic aorta is reported as 41 ± 2%. In the assay with Calcium, the “Calcium Antagonism PKCa^−1” value was 7.96 ± 0.27.
